Like-named read-outs stand apart in the source and are kept apart here. Bounds are passed on as bounds.

Data set [1] deals with primary human hepatocytes. Briefly: IMM-H004 metabolism by primary human hepatocytes. To be noted: human hepatocytes incubated with 30 nM IMM-H004, up to 3 h. Format: in vitro ADME. The protocol:
Primary human hepatocytes were used to predict the metabolism of IMM-H004 in humans. Cryopreserved human hepatocytes were obtained from Bioreclamation IVT (Baltimore, MD, USA). Three different hepatocyte preparations (Lot CDP, ZHL, and DSX) were pooled in this study. Hepatocytes were resuspended and seeded in 96-well plates at a density of 0.7 × 10^6 cells/ml. After 24 h of culture, cells were washed with Hanks’ balanced salt solution, followed by addition of 30 nM IMM-H004 dissolved in Hanks’ balanced salt solution. Incubations were carried out at 37°C up to 3 h under gentle shaking. Cell culture supernatant was collected within 3 h and determined by LC-MS/MS. All experiments were conducted in triplicate.
(§1) The LC-MS/MS system consisted of Shimadzu 30A UPLC and API 4000 triple quadruple mass spectrometer (AB SCIEX, USA). Data acquisition and analysis were accomplished using Analyst 1.5.2 software. The analytes and IS were chromatographed by injection of 1 μL sample. The mobile phases consisted of solvent A (0.5% formic acid in water) and solvent B (0.5% formic acid in methanol) at a flow rate of 0.3 ml/min on an Eclipse Plus C18 column (2.1 mm × 50 mm, 3.5 μm, Agilent, USA), and the operating temperature was 40°C. The elution condition was 10% solvent B for 0.7 min, ascending to 98% B in 2.3 min, holding for 3.0 min and reequilibrating to 10% B within 0.1 min and maintained for 2.4 min (Jiang JW, 2018). The specific transitions monitored were 305→248 for IMM-H004, 291→234 for M1, 291→248 for M2, 481→305 for IMM-H004G, 385→305 for M4, and 260→183 for IS.

In data set [2] the test system is recombinant human CYP450 enzymes. Briefly: Metabolism by cDNA-expressed human CYP450 enzymes. The format is in vitro ADME. The settings on record: 1 μM IMM-H004, 50 pmol/ml CYP, 40 min. Here is the method: CYP450s. IMM-H004 was incubated in triplicate with […] individual human complementary DNA (cDNA) expressed CYPs (CYP1A1, 1A2, 2A6, 2B6, 2C8, 2C9, 2C19, 2D6, 2E1, 2J2, 3A4, 4A11, 4F2, and 4F3) at 37°C. The incubation mixtures contained individual CYP450 enzymes (50 pmol/ml), IMM-H004 (1 μM), and NADPH regeneration system in a final volume of 0.2 ml Tris-HCl buffer (50 mM, pH 7.4) containing 5 mM MgCl2. The mixtures were incubated for 40 min before being quenched with two volumes of ice-cold acetonitrile containing IS (100 ng/ml). After vortex-mixing and centrifugation, M1 and M2 in the supernatant were analyzed by LC-MS/MS.

In a further data set the test system is chemokine-like factor 1. Further details: method as in earlier work. To be noted: ref Li et al., 2010, Kong et al., 2011, Sun et al., 2013, 2014, read-out: IC50 as antagonist of chemokine-like factor 1; cited from earlier work.
Another data set relates to cell cultures. The settings on record: not tested in this paper's methods; reference not given; cited from earlier work.
A short description of data set [3]: Plasma pharmacokinetics in MCAO/R rats after iv IMM-H004 citrate. The format is in vivo. To be noted: rat, iv IMM-H004 citrate 10 mg/kg; for Tmax: iv, 10 mg/kg. Here is the method: The plasma pharmacokinetics (PK) and pharmacodynamics (PD) of IMM-H004 and IMM-H004G were investigated in a cerebral ischemia-reperfusion rat model produced by middle cerebral artery occlusion/reperfusion (MCAO/R) after iv administration of IMM-H004. In brief, rats underwent a 1-h MCAO and then received IMM-H004 citrate (10 mg/kg, dissolved in saline to yield a concentration of 2 mg/ml) immediately after reperfusion, an effective dosing time as reported ([Zuo et al., 2015]; [Yang et al., 2017]). For sham surgery, all the arteries were exposed for the surgical period, but the filament was not inserted into the MCA. Blood samples were collected through external jugular vein cannula into heparinized tubes at 0.033, 0.167, 0.5, 1, 2, 4, 6, 8, 12, 24, 36, and 48 h postdose for IMM-H004 and IMM-H004G detection (50 μL of blood at each time point) and at 0.5, 1, 2, 4, 7, and 10 h postdose for malondialdehyde (MDA) detection (80 μL of blood at each time point). Plasma was immediately separated by centrifugation at 900×g for 5 min. Plasma concentrations of IMM-H004 and IMM-H004G in ischemia-reperfusion rats were determined by LC-MS/MS analysis. The PK parameters were calculated by noncompartmental analysis using WinNonlin Version 6.1 (Pharsight, Mountain View, CA). Plasma MDA concentrations in ischemia-reperfusion and sham rats within 24 h were estimated by enzyme-linked immunosorbent assay.
as §1

Data set [4] is described as follows: Excretion in rat urine, bile and feces after iv IMM-H004 citrate. The format is in vivo. To be noted: iv IMM-H004 citrate 6 mg/kg. The protocol: After intravenous (iv) injection with IMM-H004 citrate (6 mg/kg, dissolved in saline to yield a concentration of 1.2 mg/ml), rats were housed individually in metabolic cages to allow separate collection of urine and feces until 72 h postdose. Additional rats were bile cannulated under light ether anesthesia. Each rat was housed individually in a metabolic cage and allowed to recover from anesthesia for 2 to 3 h. Then bile duct cannulated rats were iv injected with IMM-H004 citrate (6 mg/kg, dissolved in saline to yield a concentration of 1.2 mg/ml), bile samples were collected until 24 h postdose.
Feces samples were homogenized in 10-fold solvent of water and methanol (1:1) and diluted 10-fold in water. Bile and urine samples were diluted 100-fold in water. The concentrations of IMM-H004, M1, M2, and IMM-H004G in diluted bile, urine, and feces samples were determined by LC-MS/MS.
as §1

The subject of the next data set is PC12 cells. Briefly: Neuroprotection in oxygen-glucose deprivation injured PC12 cells (MTT cell viability). Format: cell-based. Here is the method:
The neuroprotective activity of IMM-H004 and IMM-H004G was evaluated on PC12 cells damaged by oxygen-glucose deprivation (OGD). PC12 cells were purchased from the American Type Culture Collection. Cultures were maintained at 37°C in 5% CO2 in a humidified incubator. For cell viability assay, PC12 cells were incubated in 96-well plates at a density of 5 × 10^4/ml for 24 h. In the sham group, PC12 cells were cultured in Dulbecco’s modified eagle medium supplemented with 5% fetal bovine serum and 5% equine serum (Gibco, USA). In the OGD group, PC12 cells were cultured in glucose-free Earle’s balanced salt solution supplemented with 15 mM Na2S2O4 for 2 h and then incubated with compounds of nerve growth factor (NGF, 10 μM), edaravone (10 μM, 50 μM), IMM-H004 (1 μM, 10 μM), and IMM-H004G (1 μM, 10 μM), respectively. After 24 h of incubation, MTT (5 mg/ml) was added into the cell cultures and incubated for an additional 4 h. Then the supernatant was removed and 100 μL DMSO was added. Absorbance was measured using an Ultramark microplate reader at a wavelength of 562 nm. The cell viability was expressed as a percentage of the absorbance density value of control cultures.

Another data set deals with MCAO/R rats. Briefly: Neuroprotection in transient MCAO/R rats (infarct volume, neurological score). The format is in vivo, rat. The settings on record: 10 mg/kg iv after reperfusion, 24 h, vs model. An excerpt:
Transient MCAO/R was applied to compare the neuroprotection of IMM-H004 and IMM-H004G. Rats were fasted overnight with free access to water and randomly assigned to different groups. Rats were anesthetized with a mixture of 5% isoflurane and 95% oxygen and maintained with a mixture of 3% isoflurane and 97% oxygen during the surgical procedure. A 4-0 nylon thread, the tip of which was burned (diameter 0.36 mm), was inserted into the right internal carotid artery and advanced until the origin of the right MCA was occluded. After 60 min of the occlusion, the thread was withdrawn to allow reperfusion, and then the rats were returned to the chamber. Saline or edaravone at dose of 6 mg/kg or IMM-H004 citrate and IMM-H004G at dose of 10 mg/kg (dissolved in saline to yield a concentration of 2 mg/ml) were administered by intravenous injection immediately after reperfusion.
The rats were assessed for neurologic deficits at 24 h after reperfusion according to Zea Longa’s five-point scale. […] The animals without symptoms of neurological impairment or dying after the surgery were rejected. All animals were killed 24 h after reperfusion. Brains of the animals were removed and cut into 2 mm-thick slices, for a total of six slices per animal. The slices were immersed in a 2% solution of 2,3,5-triphenyltetrazolium chloride in phosphate buffered saline at 37°C for 20 min and then fixed in 4% formaldehyde overnight. Images of the slices were obtained with a scanner and a computer. The infarct area and the total area were calculated by tracing the areas on the computer screen with Image J. The percentage of the infarct volume was expressed as the infarct volumes (white parts)/the whole volume of the cortex.

On the set-up of data set [5]: method as in Jiang et al., 2018. The settings on record: brain microdialysis; ref Jiang et al., 2018; cited from earlier work.

In the case of `COc1cc(O)cc2oc(=O)c(N3CCNCC3)c(C)c12` [M2], in [1], the “detection of metabolite in cell supernatant” value (from here on “detection of metabolite”) is “not detectable”.

Consider `Cc1c(N2CCN(C)CC2)c(=O)oc2cc(O)cc(O)c12` [M1], for which the “detection of metabolite” value in [1] is “not detectable”. The “M1 formation in CYP450 enzyme incubations” value in data set [2] was “could not be detected in all CYP450 enzymes incubations”. Besides, the IC50 (in general, the point on the concentration scale where inhibition reaches its midpoint) in the data set with chemokine-like factor 1 was 21.2 nM. The “neuroprotective activity in cell cultures” value with cell cultures is “showed neuroprotective activity in cell cultures”.

Take `COc1cc(OC2OC(C(=O)O)C(O)C(O)C2O)cc2oc(=O)c(N3CCN(C)CC3)c(C)c12` (stereo not shown) [IMM-H004G]: in data set [3], the AUC(0-inf) (in general, the area under the concentration-time curve extrapolated to infinity) is 29100 ng·h/mL; the AUC(0-t) (in general, the area under the concentration-time curve up to a stated or last time point) is 28900 ng·h/mL; the Cmax (in general, the peak of the concentration-time curve) worked out at 13000 ng/mL. Besides, the MRT last in [3] (read-out: MRT(0-t)) turned out to be 7.89 ± 0.57 h. The MRT inf in data set [3] (read-out: MRT(0-∞)) was determined as 8.16 ± 0.65 h. The half-life in data set [3] (read-out: t 1/2β (converted)) was 6.61 ± 0.86 h. The Tmax in [3] (read-out: T max) came out at 0.17 h. Further, the Tmax in data set [3] (read-out: time to maximum plasma concentration after dosing) was not above 0.25 h. Moreover, the “recovery of IMM-H004G in bile” value in data set [4] (bile duct cannulated rats, until 24 h) is listed as 75.9 % of intake. In [4] (rat feces), the IMM-H004G in feces entry was “undetectable”. Moreover, the “urinary IMM-H004G recovered” value in data set [4] (rat urine, 72-h sampling period) is given as 69.7 % of intake. Besides, the “detection of metabolite” value in data set [1] is recorded as “could be detected”. Further, the “cell viability of OGD-injured PC12 cells” value with PC12 cells (1 and 10 μM, 24 h, MTT, vs model group) was “significant (p < 0.05) preservation of viability”. Moreover, the “IMM-H004 detected in PC12 cultures after incubation with IMM-H004G” value in the data set on PC12 cells (24 h of incubation with IMM-H004G) was “only trace of IMM-H004 could be detected”. Moreover, in the data set with MCAO/R rats, the infarct volume result is given as “markedly reduced (p < 0.01)” and the neurological test score entry is “significant improvement (p < 0.01)”. In addition, in data set [5], the “exposure of IMM-H004G in rat brain extracellular fluid relative to IMM-H004” value was 10.5 fold.
